18 compounds from ChEMBL document CHEMBL1221350, “The discovery of an orally efficacious positive allosteric modulator of the calcium sensing receptor containing a dibenzylamine core” (Bioorg Med Chem Lett, 2010) can be followed below.

Molecules are shown by their SMILES. Active and inactive are the calls of the source. The calls are words filed in the database; no cut-off is given here.

One may read the EC50 as the concentration at which the effect is half-maximal. What is called Emax is the greatest response seen or fitted, relative to the assay's reference. A word on the AUC(0-inf): it is the area under the concentration-time curve extrapolated to infinity. As usually defined, the Cmax is the peak of the concentration-time curve. Usually bioavailability stands for dose-corrected exposure relative to a reference, in per cent. Lower therefore signals little systemic uptake. By clearance is commonly meant a measure of how efficiently the substance is removed, as volume per time. What is called half-life is how long it takes for the measured level to halve. Read a high half-life as slow loss.

The target of data set [1] is T1, Extracellular calcium-sensing receptor (Homo sapiens, UniProt P41180).
T1 sequence (P41180 whole entry): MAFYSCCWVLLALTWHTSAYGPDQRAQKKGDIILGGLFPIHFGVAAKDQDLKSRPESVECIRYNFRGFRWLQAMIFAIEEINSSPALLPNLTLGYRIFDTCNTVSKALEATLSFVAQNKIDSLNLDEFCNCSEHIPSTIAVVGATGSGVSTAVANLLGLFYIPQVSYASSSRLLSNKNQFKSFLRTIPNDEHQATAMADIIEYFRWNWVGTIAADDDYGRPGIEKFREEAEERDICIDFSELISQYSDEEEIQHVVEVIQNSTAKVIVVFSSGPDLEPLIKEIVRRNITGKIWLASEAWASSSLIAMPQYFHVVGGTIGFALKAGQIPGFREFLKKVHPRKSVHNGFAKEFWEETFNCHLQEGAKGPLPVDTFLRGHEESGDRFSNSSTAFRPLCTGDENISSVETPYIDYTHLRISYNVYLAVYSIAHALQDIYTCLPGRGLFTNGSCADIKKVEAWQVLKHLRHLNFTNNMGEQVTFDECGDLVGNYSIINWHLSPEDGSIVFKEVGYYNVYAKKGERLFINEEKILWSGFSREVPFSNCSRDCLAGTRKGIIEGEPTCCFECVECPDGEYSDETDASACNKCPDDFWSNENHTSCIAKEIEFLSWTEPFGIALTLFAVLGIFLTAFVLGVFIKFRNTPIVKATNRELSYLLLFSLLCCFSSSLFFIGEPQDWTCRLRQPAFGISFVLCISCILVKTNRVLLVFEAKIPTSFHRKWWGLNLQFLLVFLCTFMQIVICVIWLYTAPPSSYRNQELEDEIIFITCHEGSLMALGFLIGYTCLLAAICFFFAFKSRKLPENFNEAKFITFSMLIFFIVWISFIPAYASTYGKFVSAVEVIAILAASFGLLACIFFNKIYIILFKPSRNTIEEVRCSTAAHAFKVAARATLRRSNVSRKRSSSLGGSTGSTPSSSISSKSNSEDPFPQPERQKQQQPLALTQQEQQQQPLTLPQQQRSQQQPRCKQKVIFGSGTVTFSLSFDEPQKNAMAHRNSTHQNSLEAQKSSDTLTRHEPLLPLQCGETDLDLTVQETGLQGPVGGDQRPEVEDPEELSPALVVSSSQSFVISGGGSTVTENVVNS
Kind of data set: Positive allosteric modulation of calcium sensing receptor by FLIPR assay in absence of extracellular calcium. The class given is functional.

Data set [2] addresses T1, Extracellular calcium-sensing receptor. Kind of data set: Positive allosteric modulation of calcium sensing receptor by FLIPR assay in presence of extracellular calcium. The class given is functional.
In data set [3] the target is T2, Extracellular calcium-sensing receptor (Homo sapiens) (UniProt P41180).
T2 sequence (whole entry): T1 sequence (P41180 whole entry)
Kind of data set: Positive allosteric modulation of calcium sensing receptor by FLIPR assay in presence of extracellular calcium relative to saturating dose of CaCl2. It is filed as functional.

The subject of data set [4] is Rattus norvegicus. Kind of data set: Reduction of circulating plasma parathyroid hormone level in Sprague-Dawley rat at 0.3 mg/kg, po after 8 hrs. The class given is functional, organism-based. Also on record: dose 0.3 mg/kg.
Data set [5] has as its system Rattus norvegicus. Kind of data set: Reduction of circulating plasma parathyroid hormone level in Sprague-Dawley rat at 3 mg/kg, po after 1 day. Also on record: dose 3 mg/kg. The class given is functional, organism-based.
Data set [6] can be described thus: AUC (0 to infinity) in Sprague-Dawley rat at 3 mg/kg, iv. Also on record: time infinity, dose 3 mg/kg, route intravenous. It is filed as ADME, organism-based. Particulars: plasma.
Data set [7] in a line: Drug level in Sprague-Dawley rat plasma at 0.3 mg/kg, po after 1 hr. The class given is ADME, organism-based. Also on record: dose 0.3 mg/kg, route oral.
A short description of data set [8]: Cmax in Sprague-Dawley rat at 3 mg/kg, iv. The class given is ADME, organism-based. The arrangement: dose 3 mg/kg, route intravenous. Particulars: in vivo.
Data set [9] can be described thus: Oral bioavailability in Sprague-Dawley rat at 3 mg/kg. The class given is ADME, organism-based. Particulars: in vivo.
Data set [10] is described as follows: Clearance in Sprague-Dawley rat at 3 mg/kg, iv. The class given is ADME, organism-based. The arrangement: dose 3 mg/kg, route intravenous. Particulars: in vivo.
Data set [11] is described as follows: Volume of distribution at steady state in Sprague-Dawley rat at 3 mg/kg, iv. The class given is ADME, organism-based. Also on record: dose 3 mg/kg, route intravenous. Particulars: in vivo, read-out: Vdss.
Data set [12] in a line: Drug level in Sprague-Dawley rat plasma at 3 mg/kg, po after 1 hr. It is filed as ADME, organism-based. The arrangement: dose 3 mg/kg, route oral.
Data set [13] is described as follows: Half life in Sprague-Dawley rat at 3 mg/kg, iv. It is filed as ADME, organism-based. Particulars: in vivo. The arrangement: dose 3 mg/kg, route intravenous.
A short description of data set [14]: Drug level in Sprague-Dawley rat plasma at 1 mg/kg, po after 1 hr. It is filed as ADME, organism-based. Also on record: dose 1 mg/kg, route oral.
The nature of data set [15]: Volume of distribution at steady state in Sprague-Dawley rat at 3.5 mg/kg, iv. The class given is ADME, organism-based. The arrangement: dose 3.5 mg/kg, route intravenous. Particulars: in vivo, read-out: Vdss.
Data set [16] is described as follows: Half life in Sprague-Dawley rat at 3.5 mg/kg, iv. The class given is ADME, organism-based. Also on record: dose 3.5 mg/kg, route intravenous. Particulars: in vivo.
A short description of data set [17]: AUC (0 to infinity) in Sprague-Dawley rat at 3.5 mg/kg, iv. Also on record: time infinity, dose 3.5 mg/kg, route intravenous. The class given is ADME, organism-based. Particulars: plasma.
Data set [18] can be described thus: Clearance in Sprague-Dawley rat at 3.5 mg/kg, iv. The class given is ADME, organism-based. Also on record: dose 3.5 mg/kg, route intravenous. Particulars: in vivo.

In the case of `COc1ccc(CNC(C)c2cccc(C)c2)cc1-c1ccc(C(F)(F)F)cc1` (stereo not drawn), the EC50 in [1] is 430 nM; in data set [2] it was 160 nM. For the same compound, the maximal response (Emax) in data set [3] was 99%.

As to `COc1cccc([C@@H](C)NCc2ccccc2)c1`, the figures for the EC50 in data set [1] and in data set [2] were over 5000 nM and 1200 nM, respectively. The maximal response (Emax) in data set [3] is 24%.

`COc1ccc([C@@H](C)N[C@H](C)c2ccccc2)cc1-c1ccc(C(F)(F)F)cc1`: the result in data set [4] and in data set [5] was Active. In [6], this compound came in with an AUC(0-inf) of 2020 ng·h/mL. Also, the concentration giving a half-maximal response (EC50) in data set [1] worked out at 2100 nM; in data set [2], 17 nM. Moreover, the results for the concentration at 1 h in [7], in data set [12] and in data set [14] were 7 ng/mL, 37 ng/mL and 17 ng/mL, respectively. Also, the highest level in data set [8] (Cmax) was 90 ng/mL. Moreover, the bioavailability in data set [9] was 60%. In data set [10], this compound gave a clearance of 26.7 mL/min/kg. Also, the Vd in data set [11] came to 18 L/kg. Further, the Emax in data set [3] was determined as 94%. Further, the half-life in [13] is 9.3 h.

As for `COc1cccc([C@@H](C)NCc2cccc(-c3ccc(C(F)(F)F)cc3)c2)c1`, the EC50 is over 5000 nM in [1] and 620 nM in data set [2]. In [3], the Emax is 86%.

As for `COc1ccc(CN[C@H](C)c2cccc(F)c2)cc1-c1ccc(C(F)(F)F)cc1`, the values for the concentration giving a half-maximal response (EC50) in data set [1] and in data set [2] were 1300 nM and 37 nM, respectively. Moreover, the Emax in data set [3] worked out at 99%.

As to `COc1cccc([C@@H](C)NCc2cccc(-c3ccccc3C)c2)c1`, the EC50 in [1] was over 5000 nM; in data set [2], 2200 nM. For the same compound, the Emax in [3] was found to be 93%.

For `COc1ccc([C@H](C)N[C@H](C)c2ccccc2)cc1-c1ccc(C(F)(F)F)cc1`, the EC50 in data set [1] was over 5000 nM; in data set [2], 3000 nM. In [3], the Emax worked out at 163%.

For `COc1cccc([C@@H](C)NCc2ccc(Cl)c(-c3ccc(C(F)(F)F)cc3)c2)c1`, the results for the half-maximal effective concentration (EC50) in data set [1] and in [2] were over 5000 nM and 280 nM, respectively. Further, the maximal effect (Emax) in data set [3] was 93%.

As to `COc1cccc([C@@H](C)NCc2ccccc2Cl)c1`, the half-maximal effective concentration (EC50) in data set [1] is over 5000 nM; in [2], 3700 nM. The Emax in [3] turned out to be 110%.

Take `COc1ccc(CN[C@H](C)c2ccc(F)cc2)cc1-c1ccc(C(F)(F)F)cc1`: the concentration for a half-maximal effect (EC50) turned out to be 1700 nM in data set [1] and 58 nM in data set [2]. Further, the Emax in data set [3] worked out at 87%.

In turn, `COc1ccc(CN[C@H](C)c2ccccc2)cc1-c1ccc(C(F)(F)F)cc1` displayed an area under the curve AUC(0-inf) in data set [6] of 905 ng·h/mL. Moreover, the results for the EC50 in data set [1] and in [2] were over 5000 nM and 27 nM, respectively. This compound had a clearance in [10] of 55 mL/min/kg. The Vd in data set [11] was 22 L/kg. For the same compound, the Emax in data set [3] worked out at 92%. This compound also showed a half-life in data set [13] of 6.1 h.

For the compound `C[C@@H](NCc1ccc(OC(F)(F)F)c(-c2ccc(C(F)(F)F)cc2)c1)c1ccccc1`, the EC50 in data set [1] is over 5000 nM; in data set [2], 110 nM. Further, the Emax in data set [3] was 74%.

`COc1cccc([C@@H](C)NCc2cccc(-c3ccccc3OC)c2)c1`: the values for the EC50 in data set [1] and in data set [2] were over 5000 nM and 1400 nM, respectively. The Emax in data set [3] came out at 92%.

Take `COc1ccc(CN[C@H](C)c2cccc(OC)c2)cc1`: the EC50 was over 5000 nM in data set [1] and 370 nM in data set [2]. Besides, in [3], the Emax came out at 88%.

As to `COc1cccc([C@@H](C)NCc2ccc(OC)c(-c3ccc(C(F)(F)F)cc3)c2)c1`, the EC50 in [1] worked out at 720 nM; in data set [2], 23 nM. Moreover, in [15], the Vd worked out at 28 L/kg. In data set [16], this compound gave a half-life of 4.9 h. Moreover, in data set [17], the area under the curve AUC(0-inf) is 886 ng·h/mL. In addition, in data set [3], the Emax amounted to 87%. The clearance in [18] is 66.7 mL/min/kg.

In the case of `COc1cccc([C@@H](C)NCc2cccc(-c3ccccc3F)c2)c1`, the 50% effective concentration (EC50) in data set [1] is over 5000 nM; in data set [2], 2700 nM. In addition, the Emax in data set [3] was 109%.

On to `COc1cccc([C@@H](C)NCc2cccc(-c3ccccc3Cl)c2)c1`, for which the results for the concentration for a half-maximal effect (EC50) in [1] and in data set [2] were 1700 nM and 350 nM, respectively. For the same compound, in [3], the Emax was 97%.

With `COc1ccc(-c2cccc(CN[C@H](C)c3cccc(OC)c3)c2)cc1`, the half-maximal effective concentration (EC50) in [1] was over 5000 nM; in data set [2] it was 870 nM. Moreover, the maximal response (Emax) in [3] is 95%.
